Source: publication PMC4474691, “Leukemia-Associated Mutations in Nucleophosmin Alter Recognition by CRM1: Molecular Basis of Aberrant Transport” (PLoS ONE, 2015)

Columns and labels:
[1] = system: endogenous NPM in HEK293T cells; assay: Localization of endogenous NPM in HEK293T cells; assay type: cell-based, human; conditions: hydroxyurea 4 mM 24 h (data not shown)
Method: (§1) Cell culture, transfection, treatment and imaging
(§2) Human embryonic kidney 293T (HEK293T) and HeLa cells (ECACC) were grown in Dulbecco’s modified Eagle’s medium, supplemented with 10% fetal bovine serum, 100 units/ml penicillin and 100 μg/ml streptomycin (all from Invitrogen). The cells were seeded onto sterile glass coverslips in 12-well trays 24 h before transfection. Transfections were carried out with XtremeGENE 9 (Roche) following the manufacturer’s protocol. Treatment of cells with the different drugs was done at the indicated final concentrations and time periods: Actinomycin D (ActD, Sigma) at 5 μg / mL for 3 h, and hydroxyurea (HU, Sigma) at 4 mM for 24 h.
Cells were fixed, either 20 or 42 h after transfection, with 3.7% formaldehyde in PBS for 30 min, then treated with 0.2% Triton X-100 in PBS for 10 min, for membrane permeabilization and incubated for 1 h in blocking solution (3% BSA in PBS). In YFP-CRM1 overexpression experiments, endogenous NPM was detected with anti-B23 (Santa Cruz Biotechnology FC82291, dilution 1:800), Myc3-NPM with anti-Myc (Cell Signalling 2276, dilution 1:2000) and Flag-SurvNLS with anti-Flag (Sigma F1704, dilution 1:300). Primary antibodies were diluted in blocking solution. In all cases, the secondary antibody was Alexa Fluor 594 anti-mouse (Invitrogen A11005, dilution 1:400). Washing between the different steps were carried out with PBS. […] Slides were examined using a Zeiss Axioskop fluorescence microscope. For quantification, at least 200 cells were “blind counted” and classified as having nuclear (or nucleolar), nuclear/cytoplasmic or cytoplasmic localization of NPM (or the Flag-SurvNLS control). […]
Fig 2 Localization of endogenous and ectopically expressed NPM and effect of treatment with actinomycin D (ActD) and CRM1 overexpression in HEK293T cells. […] Green denotes YFP (Y) or YFP-CRM1 (YC) fluorescence; red, immunostaining of endogenous NPM; and blue, DAPI fluorescence. […] More than 200 cells were “blind” counted. […] (D) Quantification of cytoplasmic (C) or nuclear and cytoplasmic (N/C) localization of overexpressed Flag-SurvNLS and Myc-NPM. […]

[2] = system: Myc-NPM in HEK293T cells; assay: Localization of Myc-NPM in HEK293T cells; assay type: cell-based, human; conditions: YFP-CRM1 co-expression, hydroxyurea 4 mM 24 h (increase from 20%)
Method: as §1, §2
Cells were fixed, either 20 or 42 h after transfection, with 3.7% formaldehyde in PBS for 30 min, then treated with 0.2% Triton X-100 in PBS for 10 min, for membrane permeabilization and incubated for 1 h in blocking solution (3% BSA in PBS). In YFP-CRM1 overexpression experiments, endogenous NPM was detected with anti-B23 (Santa Cruz Biotechnology FC82291, dilution 1:800), Myc3-NPM with anti-Myc (Cell Signalling 2276, dilution 1:2000) and Flag-SurvNLS with anti-Flag (Sigma F1704, dilution 1:300). Primary antibodies were diluted in blocking solution. In all cases, the secondary antibody was Alexa Fluor 594 anti-mouse (Invitrogen A11005, dilution 1:400). […] Slides were examined using a Zeiss Axioskop fluorescence microscope. […]

[3] = system: HeLa cells; assay: In vivo nuclear export assay, Rev(1.4)-GFP; assay type: cell-based; conditions: Rev(1.4)-NPMcNES-GFP in HeLa cells, actinomycin D, >200 cells per sample
Text: The clone of Myc3 tagged human NPM in pCDNA3.1 for eukaryotic expression was kindly provided by Dr. Yanping Zhang (University of Texas). From this clone, we used PCR to generate the AML-associated mutants A and E [27], by incorporating the mutations in the 3´oligonucleotide. The three NPM variants (wild type, A and E) were subcloned as YFP-NPM fusions into pEYFP-C1. The plasmid encoding YFP-CRM1 has been previously described, and pEYFP-C1 was used as its corresponding negative control. As a positive control in cell localization assays, a previously described plasmid encoding Flag-tagged Survivin fused to a heterologous NLS (“SurvNLS”) was used. To test the export activity of a novel putative NES in the C-terminal domain of wild type NPM, a DNA fragment encoding residues 264–282 was cloned into the plasmid Rev (1.4)-GFP (a gift of Dr. Beric Henderson, University of Sydney), as previously described.
The export activity of a novel putative NES in the C-terminal domain of NPM was tested using an established in vivo nuclear export assay in HeLa cells (see Supporting Information for further experimental details).
Supplementary file pone.0130610.s001.tif: S1 Fig A novel candidate NES (cNES) in NPM is not active in a nuclear export assay. […] Fluorescence microscopy images in panel B show the localization of the different proteins. […] More than 200 cells were counted per sample. […]

[4] = target: T1, CRM1^HA (Mus musculus, UniProt Q6P5F9, L431A/V430A/V432A); assay: Size exclusion chromatography of NPM / CRM1^HA complex formation; assay type: binding
T1 construct: His-ZZ (cleaved yes); made in house; host or cells: Escherichia coli BL21-CodonPlus (DE3)
T1 sequence (Q6P5F9 1-1062 V430A/L431A/V432A limits assumed): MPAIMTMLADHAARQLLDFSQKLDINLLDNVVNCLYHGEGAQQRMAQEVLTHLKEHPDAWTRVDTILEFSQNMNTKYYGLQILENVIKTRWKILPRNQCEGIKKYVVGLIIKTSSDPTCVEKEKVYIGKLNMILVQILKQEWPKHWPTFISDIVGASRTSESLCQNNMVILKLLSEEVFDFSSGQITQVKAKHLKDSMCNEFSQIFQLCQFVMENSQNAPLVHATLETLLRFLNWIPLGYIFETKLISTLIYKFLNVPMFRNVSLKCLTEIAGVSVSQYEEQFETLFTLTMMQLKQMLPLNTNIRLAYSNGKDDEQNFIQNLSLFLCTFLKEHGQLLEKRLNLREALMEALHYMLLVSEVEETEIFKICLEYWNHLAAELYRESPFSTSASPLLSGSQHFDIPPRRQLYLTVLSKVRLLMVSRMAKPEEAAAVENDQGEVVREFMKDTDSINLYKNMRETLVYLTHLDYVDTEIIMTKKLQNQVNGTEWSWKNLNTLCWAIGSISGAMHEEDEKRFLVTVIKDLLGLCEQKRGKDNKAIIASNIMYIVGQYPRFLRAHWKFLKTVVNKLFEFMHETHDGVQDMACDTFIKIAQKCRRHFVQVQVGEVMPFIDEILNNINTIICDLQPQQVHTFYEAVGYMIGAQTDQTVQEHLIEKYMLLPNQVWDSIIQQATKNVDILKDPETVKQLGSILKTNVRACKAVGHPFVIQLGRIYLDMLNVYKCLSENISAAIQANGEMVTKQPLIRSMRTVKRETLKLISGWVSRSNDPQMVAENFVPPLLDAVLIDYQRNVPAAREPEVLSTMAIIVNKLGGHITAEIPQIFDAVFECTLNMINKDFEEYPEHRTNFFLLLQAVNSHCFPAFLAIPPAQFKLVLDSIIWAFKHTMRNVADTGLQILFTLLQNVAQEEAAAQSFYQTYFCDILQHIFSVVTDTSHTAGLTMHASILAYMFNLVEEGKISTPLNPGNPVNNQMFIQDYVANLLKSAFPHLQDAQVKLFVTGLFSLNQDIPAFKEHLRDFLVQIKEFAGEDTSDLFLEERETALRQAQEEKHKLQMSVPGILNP
Method: Chromatography-based binding experiments
[…] Then 100 μL were loaded onto a Superdex 200 10/30 column (GE Healthcare), equilibrated in buffer 20 mM Tris/HCl, pH 7.4, 100 mM NaCl, 5 mM DTT, 2 mM MgCl2. Runs were performed at 15°C and a flow rate of 0.2 mL / min. The eluted fractions were analyzed by SDS-PAGE. TFP-NES/CRM1^HA complex formation was also tested by Ni-NTA chromatography (see Supporting Information).
Fig 3 Native-like properties of CRM1^HA “high affinity” mutant and formation of complexes between this CRM1 variant and AML-related NPM mutants. (A) Circular dichroism thermal denaturation profiles of wild type CRM1 and CRM1^HA, followed by ellipticity at 222 nm as a function of temperature. […] When evaluating the relative amounts of the complex and free NPM, one should take into account that absorbance at 280 nm is lower for the mutants (especially NPMmutA) than for wild type NPM, since wild type NPM contains two Trp residues per subunit, NPMmutE one, and NPMmutA none. […] They are detected in the fractions containing the complex probably due to formation of mixed oligomers with the full length species and/or incomplete resolution from free NPM. […]

## NC(=O)NO [HU, hydroxyurea]
[1]
  effect of HU on endogenous NPM localization: could not be observed on endogenous NPM
[2]
  cells with cytoplasmic relocation of Myc-NPM, YFP-CRM1 co-expression with HU: 50%

## VEAKFINYVKNCFRMTDQE [NPM cNES, candidate NES in C-terminal domain of NPM, tested as Rev(1.4)-GFP fusion]
[3]
  nuclear export activity: not functional as a nuclear export signal
[3]; listed as 268-FINYVKNCFRM-278
  nuclear export activity: inactive

## wild type NPM: nucleophosmin, pentameric nucleolar protein
[4]; SEC Superdex 200, 20 μM (pentamer) NPM + 40 μM CRM1^HA, 30 min room temperature, run at 15°C, 20 mM Tris/HCl pH 7.4, 100 mM NaCl, mutant preparations partly C-terminally degraded
  complex formation with CRM1^HA: did not result in any complex stable enough as to be detected by SEC
[4]; SEC, 40 μM NPM + 140 μM CRM1^HA (data not shown)
  complex formation with CRM1^HA: failed to produce any detectable complex
